Paper PMC7017600 (Antiviral research, 2019)
Where a name gives a salt, the structure may show the parent alone. Read-outs that look alike come from different tables or passages of the source.

Experiments:
[1] = molecular target: T1, BPLF1 1–246 (Epstein-Barr virus, UniProt P03186)
[2] = molecular target: T1, BPLF1 1–246; assay: biochemical
[3] = molecular target: T1, BPLF1 1–246; assay: K63-linked ubiquitin chain cleavage assay; type: biochemical, Epstein Barr Virus (EBV); conditions: 10 μM inhibitor, 25 nM BPLF1 1–246, 2 μg K63-linked chains, overnight 37 °C, SDS gel
[4] = system: EBV; assay: EBV infectious virus production, titered on Raji cells; conditions: 293 EBV+ cells induced with BZLF1, 48 h, at the concentrations tested
[5] = system: 293 EBV+ cells; assay: Cell viability by trypan blue exclusion; conditions: 48 h, concentrations up to 10 μM
[6] = molecular target: T1, BPLF1 1–246; assay: Suramin selectivity, Ub-Rhodamine 110 assay; type: biochemical, Epstein Barr Virus (EBV)
[7] = molecular target: T2, Cezanne (Homo sapiens, UniProt Q6GQQ9); assay: Suramin selectivity, Ub-Rhodamine 110 assay; type: biochemical
T2 sequence (Q6GQQ9 1-843): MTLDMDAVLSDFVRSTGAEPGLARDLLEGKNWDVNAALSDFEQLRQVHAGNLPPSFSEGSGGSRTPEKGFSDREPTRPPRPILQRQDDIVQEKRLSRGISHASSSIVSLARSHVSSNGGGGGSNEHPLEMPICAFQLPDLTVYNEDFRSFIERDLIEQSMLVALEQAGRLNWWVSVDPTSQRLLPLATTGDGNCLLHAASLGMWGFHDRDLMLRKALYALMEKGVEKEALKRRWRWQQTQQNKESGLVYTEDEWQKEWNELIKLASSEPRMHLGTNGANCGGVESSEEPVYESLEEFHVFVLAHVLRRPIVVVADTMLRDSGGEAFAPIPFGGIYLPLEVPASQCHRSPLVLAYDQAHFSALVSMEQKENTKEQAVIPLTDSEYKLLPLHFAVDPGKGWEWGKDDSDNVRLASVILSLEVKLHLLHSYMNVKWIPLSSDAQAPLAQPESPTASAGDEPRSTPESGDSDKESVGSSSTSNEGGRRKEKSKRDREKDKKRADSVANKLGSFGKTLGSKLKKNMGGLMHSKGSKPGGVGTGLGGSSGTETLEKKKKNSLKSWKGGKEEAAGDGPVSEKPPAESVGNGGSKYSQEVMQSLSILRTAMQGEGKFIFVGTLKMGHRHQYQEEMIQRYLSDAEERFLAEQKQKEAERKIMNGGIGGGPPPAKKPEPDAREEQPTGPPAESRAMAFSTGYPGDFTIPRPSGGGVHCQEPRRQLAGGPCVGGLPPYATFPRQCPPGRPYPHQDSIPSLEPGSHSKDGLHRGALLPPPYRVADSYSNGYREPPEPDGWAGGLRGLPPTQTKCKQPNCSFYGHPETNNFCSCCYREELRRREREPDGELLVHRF

[8] = molecular target: Bap1 (Homo sapiens, UniProt Q92560); assay: Suramin selectivity, Ub-Rhodamine 110 assay; type: biochemical
[9] = molecular target: T3, Atax3L (Homo sapiens, UniProt Q9H3M9); assay: Suramin selectivity, Ub-Rhodamine 110 assay; type: biochemical
T3 sequence (Q9H3M9 1-355): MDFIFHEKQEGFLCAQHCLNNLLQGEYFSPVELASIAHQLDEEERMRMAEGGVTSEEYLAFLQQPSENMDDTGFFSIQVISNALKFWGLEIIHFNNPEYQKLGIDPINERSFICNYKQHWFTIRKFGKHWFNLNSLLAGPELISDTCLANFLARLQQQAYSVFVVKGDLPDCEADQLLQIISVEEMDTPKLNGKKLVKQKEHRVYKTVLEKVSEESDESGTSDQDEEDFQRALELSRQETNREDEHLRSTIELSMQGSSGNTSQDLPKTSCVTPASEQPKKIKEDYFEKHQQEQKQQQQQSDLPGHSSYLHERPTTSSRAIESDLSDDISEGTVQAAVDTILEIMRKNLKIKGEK

[10] = molecular target: PLPro (Severe acute respiratory syndrome coronavirus, UniProt P0C6X7); assay: biochemical
[11] = system: pool of cellular DUBs (293T cell lysate); assay: Cellular DUB activity in 293T total cell lysate, Ub-Rhodamine 110; type: biochemical; conditions: 10 μM suramin, 293T lysate
[12] = molecular target: T4, USP8c (Homo sapiens, UniProt P40818); assay: Suramin selectivity, Ub-Rhodamine 110 assay; type: biochemical
T4 sequence (P40818 777-1109 limits assumed): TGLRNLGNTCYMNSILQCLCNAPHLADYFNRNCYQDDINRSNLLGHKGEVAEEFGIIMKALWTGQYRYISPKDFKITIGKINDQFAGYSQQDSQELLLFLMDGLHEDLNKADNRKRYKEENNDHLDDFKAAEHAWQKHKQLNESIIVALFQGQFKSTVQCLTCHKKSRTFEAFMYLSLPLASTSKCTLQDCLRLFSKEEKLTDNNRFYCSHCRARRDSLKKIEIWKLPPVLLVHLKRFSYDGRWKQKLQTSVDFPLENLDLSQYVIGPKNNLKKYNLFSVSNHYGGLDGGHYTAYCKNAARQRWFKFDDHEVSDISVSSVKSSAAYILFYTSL

[13] = molecular target: T5, UCH-L1 (Homo sapiens, UniProt P09936); assay: Suramin selectivity, Ub-Rhodamine 110 assay; type: biochemical
T5 sequence (P09936 1-223): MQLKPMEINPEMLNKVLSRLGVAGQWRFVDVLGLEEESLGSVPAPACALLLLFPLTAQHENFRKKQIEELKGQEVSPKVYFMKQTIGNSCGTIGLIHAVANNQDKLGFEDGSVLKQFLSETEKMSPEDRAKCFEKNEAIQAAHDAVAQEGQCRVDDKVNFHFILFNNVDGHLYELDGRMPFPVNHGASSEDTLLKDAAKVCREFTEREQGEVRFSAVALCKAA

[14] = molecular target: KSHV ORF64 1–205 N terminal fragment (Human herpesvirus 8 type P, UniProt Q2HR64); assay: ORF64 DUB activity in Ub-Rhodamine 110 assay; conditions: 10 μM suramin, 30 minutes with Ub-Rhodamine 110
[15] = system: KSHV; conditions: suramin up to 10 μM; for KSHV genome copy number: qPCR of supernatant of reactivated cells
[16] = molecular target: T6, UCH-L5 (Homo sapiens, UniProt Q9Y5K5); assay: Suramin selectivity, Ub-Rhodamine 110 assay; type: biochemical
T6 sequence (Q9Y5K5 1-329): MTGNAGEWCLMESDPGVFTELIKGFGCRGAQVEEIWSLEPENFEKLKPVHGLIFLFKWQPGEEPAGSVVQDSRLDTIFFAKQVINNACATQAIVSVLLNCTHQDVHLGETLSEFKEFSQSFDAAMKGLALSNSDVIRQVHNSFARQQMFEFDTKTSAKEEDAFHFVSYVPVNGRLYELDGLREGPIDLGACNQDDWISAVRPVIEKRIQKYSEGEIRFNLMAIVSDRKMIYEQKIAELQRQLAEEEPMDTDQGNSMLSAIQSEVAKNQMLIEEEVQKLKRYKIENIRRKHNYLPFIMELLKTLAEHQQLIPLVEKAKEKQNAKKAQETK

[17] = molecular target: T7, JosD2 (Homo sapiens, UniProt Q8TAC2); assay: Suramin selectivity, Ub-Rhodamine 110 assay; type: biochemical
T7 sequence (Q8TAC2 1-188): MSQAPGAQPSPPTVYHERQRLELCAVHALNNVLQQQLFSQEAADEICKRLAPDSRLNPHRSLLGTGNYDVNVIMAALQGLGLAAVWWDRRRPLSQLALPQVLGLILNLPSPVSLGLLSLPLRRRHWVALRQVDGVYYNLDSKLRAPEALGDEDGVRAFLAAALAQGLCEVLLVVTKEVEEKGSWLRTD

T1 sequence (P03186 1-246): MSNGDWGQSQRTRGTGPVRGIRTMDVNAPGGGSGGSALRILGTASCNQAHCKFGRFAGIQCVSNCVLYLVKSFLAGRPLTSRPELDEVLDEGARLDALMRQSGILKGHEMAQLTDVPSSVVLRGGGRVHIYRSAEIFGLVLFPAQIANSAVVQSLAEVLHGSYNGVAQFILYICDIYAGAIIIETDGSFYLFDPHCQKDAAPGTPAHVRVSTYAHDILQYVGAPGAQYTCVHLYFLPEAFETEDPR
KSHV ORF64 1–205 N terminal fragment, sequence (Q2HR64 1-205): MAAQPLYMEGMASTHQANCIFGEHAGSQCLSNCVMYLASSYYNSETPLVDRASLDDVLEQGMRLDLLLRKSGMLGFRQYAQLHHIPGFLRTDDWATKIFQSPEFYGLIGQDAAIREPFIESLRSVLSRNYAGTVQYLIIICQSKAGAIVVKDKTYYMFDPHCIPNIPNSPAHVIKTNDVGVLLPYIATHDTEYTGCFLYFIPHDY
Bap1, sequence (Q92560 whole entry): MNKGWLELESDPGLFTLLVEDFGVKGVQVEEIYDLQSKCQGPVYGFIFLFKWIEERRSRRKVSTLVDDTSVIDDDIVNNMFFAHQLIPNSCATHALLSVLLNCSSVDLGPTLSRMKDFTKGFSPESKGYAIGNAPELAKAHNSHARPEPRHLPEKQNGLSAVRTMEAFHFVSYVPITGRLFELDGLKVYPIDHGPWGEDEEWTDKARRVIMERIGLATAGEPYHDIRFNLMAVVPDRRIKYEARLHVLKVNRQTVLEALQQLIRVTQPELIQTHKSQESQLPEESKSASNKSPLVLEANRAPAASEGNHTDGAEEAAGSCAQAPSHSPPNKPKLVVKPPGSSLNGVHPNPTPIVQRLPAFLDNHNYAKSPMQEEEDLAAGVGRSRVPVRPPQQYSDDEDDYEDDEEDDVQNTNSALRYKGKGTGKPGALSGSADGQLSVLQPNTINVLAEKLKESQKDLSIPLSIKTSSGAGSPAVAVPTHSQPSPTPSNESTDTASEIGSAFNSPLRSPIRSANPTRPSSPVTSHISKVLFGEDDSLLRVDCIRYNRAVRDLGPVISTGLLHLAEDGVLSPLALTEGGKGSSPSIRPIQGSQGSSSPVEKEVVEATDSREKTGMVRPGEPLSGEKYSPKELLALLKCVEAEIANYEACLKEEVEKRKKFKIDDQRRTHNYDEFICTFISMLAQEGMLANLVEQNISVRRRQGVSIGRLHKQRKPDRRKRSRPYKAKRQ

NC(Cc1cc(O)c(O)cc1O)C(=O)O (racemic) [6-Hyd roxy-DL-DOPA] was tested, and the IC50 [1] was > 10 µM.
O=C(O)C1=CC(=C(c2ccc(O)c(C(=O)O)c2)c2ccc(O)c(C(=O)O)c2)C=CC1=O [Aurintricarboxylic acid] gave an IC50 [2] of 3300 nM.
OC[C@H]1O[C@H]([S-])[C@H](O)[C@@H](O)[C@@H]1O.[Au+] [Aurothioglucose] was tested, and the “inhibition of K63-linked ubiquitin chain cleavage” value [3] was “inhibited K63-linked chain cleavage”, the “infectious virus production (in words)” value [4] was “did not result in decreased virus production” and the “cell growth or viability” value [5] was “not inhibit cell growth or viability”. The IC50 [1] was 2.5 µM.
With Cc1cc2c(C(C)C)c(O)c(O)c(C=O)c2c(O)c1-c1c(C)cc2c(C(C)C)c(O)c(O)c(C=O)c2c1O [Gossypol] the IC50 [2] was 3000 nM.
CN(N=O)c1ccc(O)c(O)c1 [Me-3,4-dephostatin] was tested, and the IC50 [1] was > 10 µM.
In the case of O=C(Nc1cccc(C(=O)Nc2ccc(S(=O)(=O)O)c3cc(S(=O)(=O)O)cc(S(=O)(=O)O)c23)c1)Nc1cccc(C(=O)Nc2ccc(S(=O)(=O)O)c3cc(S(=O)(=O)O)cc(S(=O)(=O)O)c23)c1 [NF 023], the IC50 [1] is reported as 6.1 µM.
For O=C1C(SCCO)=C(SCCO)C(=O)c2ccccc21 [NSC 95397], the “inhibition of K63-linked ubiquitin chain cleavage” value [3] was “inhibited K63-linked chain cleavage” and the IC50 [1] was 4.8 µM.
In the case of Cc1nc(N=Nc2cc(S(=O)(=O)O)c3cc([N+](=O)[O-])cc(S(=O)(=O)O)c3c2)c(COP(=O)(O)O)c(C=O)c1O [PPNDS tetrasodium], the IC50 [1] is reported as > 10 µM.
C[C@]12C=CC(=O)C=C1CC[C@@H]1C2=CC[C@]2(C)[C@@H](C(=O)CN3CCN(c4cc(N5CCCC5)nc(N5CCCC5)n4)CC3)CC[C@@H]12 [U-74389G maleate] gave an IC50 [1] of 3.4 µM.
For CC1(C)CCC2=C(O1)c1ccccc1C(=O)C2=O [beta-lapachone], the “inhibition of K63-linked ubiquitin chain cleavage” value [3] was “inhibited K63-linked chain cleavage” and the IC50 [2] was 2500 nM.
Cc1ccc(C(=O)Nc2ccc(S(=O)(=O)O)c3cc(S(=O)(=O)O)cc(S(=O)(=O)O)c23)cc1NC(=O)c1cccc(NC(=O)Nc2cccc(C(=O)Nc3cc(C(=O)Nc4ccc(S(=O)(=O)O)c5cc(S(=O)(=O)O)cc(S(=O)(=O)O)c45)ccc3C)c2)c1 [suramin, Suramin sodium salt] was tested, and the IC50 [6] was 3.3 µM, the IC50 [7] was 1600 nM and the IC50 [8] was 3.4 µM. The IC50 [9] was 2600 nM, the IC50 [10] was 3.2 µM and the “inhibition of K63-linked ubiquitin chain cleavage” value [3] was “inhibited K63-linked chain cleavage”. The IC50 [2] was 980 nM, the “inhibition of the pool of cellular DUBs” value [11] was “about 50%” and the IC50 [12] was 3 µM. The IC50 [13] was 3.6 µM, the “decrease in ORF64 DUB activity” value [14] was > 80% and the “KSHV reactivation from latency” value ([15]; % reactivation of latently infected cells) was “no significant effect”. For the same molecule, the “KSHV genome copy number” value [15] was “no significant effect”, the “KSHV genome copy number” value ([15]; listed as Suramin) was “does not inhibit genome copy production” and the “KSHV infectious virus production” value ([15]; supernatants 72 h post dox, infection of naïve 293 cells) was “no significant effect”. It also gave an IC50 [16] of 1500 nM and an IC50 [17] of 28 µM.
For Ub-aldehyde, the “inhibition of BPLF1 1–246 DUB activity” value ([1]; 5 μM Ub-aldehyde (low signal control)) was “approximately 95%”.
